For orientation: EC50 means the concentration giving half of the maximal effect. The low end stands for higher potency in that assay, the high end for lower potency in that assay.

For assay [1], the target named is T1, Human rhinovirus A protease (Human rhinovirus sp.) (UniProt Q4U254).
T1 sequence (whole entry): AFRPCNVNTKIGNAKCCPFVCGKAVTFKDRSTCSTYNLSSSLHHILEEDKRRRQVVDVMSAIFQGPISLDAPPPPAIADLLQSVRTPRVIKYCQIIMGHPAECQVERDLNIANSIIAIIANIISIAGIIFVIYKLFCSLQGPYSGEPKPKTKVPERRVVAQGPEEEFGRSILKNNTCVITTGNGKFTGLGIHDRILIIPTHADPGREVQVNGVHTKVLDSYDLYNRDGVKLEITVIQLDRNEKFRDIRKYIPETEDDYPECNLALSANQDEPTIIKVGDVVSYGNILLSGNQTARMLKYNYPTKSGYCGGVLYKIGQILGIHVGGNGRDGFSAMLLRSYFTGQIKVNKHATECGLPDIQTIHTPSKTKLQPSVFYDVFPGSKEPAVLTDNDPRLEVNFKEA
The experiment in a line: Inhibitory activity against Human RhinoVirus serotype-14 3C Protease. In kind it is functional. To be noted: rhinovirus B14.

Assay [2] relates to Human rhinovirus sp. The experiment in a line: In vitro antiviral activity against HRV serotype-14. In kind it is functional, organism-based.
For assay [3], the system named is Human rhinovirus sp. In words: Inhibitory activity against Human RhinoVirus serotype-14 3C Protease; NI means No inhibition to 50 uM. In kind it is functional, organism-based.

The compound `CCOC(=O)/C=C/[C@H](CCC(N)=O)NC(=O)[C@H](Cc1ccc(F)cc1)N(C)C(=O)[C@H](Cc1c[nH]cn1)NC(=O)c1cc(C)on1` registered a k obs / 1 in assay [1] of 66000 M⁻¹ s⁻¹. Further, in the assay on Human rhinovirus sp. [2], the concentration giving a half-maximal response (EC50) amounted to 1800 nM.
In assay [1], `CCOC(=O)/C=C/[C@H](CCC(N)=O)NC(=O)[C@H](Cc1ccccc1)N(C)C(=O)[C@H](CC(C)C)NC(=O)OCc1ccccc1` displayed a k obs / 1 of 5300 M⁻¹ s⁻¹. In the assay with Human rhinovirus sp. [2], the midpoint of the response, the EC50, lay at 1000 nM.
Consider `CCOC(=O)/C=C/[C@H](CCC(N)=O)N(C)C(=O)[C@H](Cc1ccccc1)NC(=O)[C@H](CC(C)C)NC(=O)OCc1ccccc1`, for which the “k obs / 1” value with Human rhinovirus sp. [3] was “No inhibition”.
In turn, `CCOC(=O)/C=C/[C@H](CCC(N)=O)NC(=O)[C@H](Cc1ccccc1)NC(=O)[C@H](CC(C)C)NC(=O)OCc1ccccc1` had a k obs / 1 in assay [1] of 25000 M⁻¹ s⁻¹. Moreover, a half-maximal response in the assay with Human rhinovirus sp. [2] (EC50) required 540 nM.
As to `CCOC(=O)/C=C/[C@H](CCC(N)=O)NC(=O)[C@H](Cc1ccccc1)N(C)C(=O)[C@@H](NC(=O)SC1CCCC1)C(C)C`, the k obs / 1 in assay [1] was determined as 22500 M⁻¹ s⁻¹. Also, the EC50 in the assay with Human rhinovirus sp. [2] was found to be 190 nM.
Taken in the same sequence, the figures for `CCOC(=O)/C=C/[C@H](CCC(N)=O)NC(=O)[C@H](Cc1ccc(F)cc1)N(C)C(=O)[C@H](CC(C)C)NC(=O)c1cc(C)on1` were 59300 M⁻¹ s⁻¹ and 400 nM.
Take `CCOC(=O)/C=C/[C@H](CCC(N)=O)NC(=O)[C@H](Cc1ccccc1)N(C)C(=O)[C@H](CSc1ccccc1)NC(=O)SC1CCCC1`: the k obs / 1 in assay [1] stood at 36800 M⁻¹ s⁻¹. In addition, the EC50 in the assay with Human rhinovirus sp. [2] was 540 nM.
Taken in the same sequence, the figures for `CCOC(=O)/C=C/[C@H](CCC(N)=O)NC(=O)[C@H](Cc1ccc(F)cc1)N(C)C(=O)[C@H](Cc1ccc2ccccc2c1)NC(=O)c1cc(C)on1` were 144000 M⁻¹ s⁻¹ and 160 nM.
Taken in the same sequence, the figures for `CCOC(=O)/C=C/[C@H](C[C@@H]1CCCNC1=O)NC(=O)[C@H](Cc1ccc(F)cc1)N(C)C(=O)[C@H](CC(C)C)NC(=O)c1cc(C)on1` were 610000 M⁻¹ s⁻¹ and 30 nM.
Taken in the same sequence, the figures for `CCOC(=O)/C=C/[C@H](CCC(N)=O)NC(=O)[C@H](Cc1ccc(F)cc1)N(C)C(=O)[C@H](Cc1cccc2ccccc12)NC(=O)c1cc(C)on1` were 95800 M⁻¹ s⁻¹ and 200 nM.
In the case of `CCOC(=O)/C=C/[C@H](CCC(N)=O)NC(=O)[C@H](Cc1ccccc1)N(C)C(=O)[C@H](CC(C)C)NC(=O)c1cc(C)on1`, in assay [1], the k obs / 1 came to 108000 M⁻¹ s⁻¹. This compound came in with a concentration giving a half-maximal response (EC50) in the assay with Human rhinovirus sp. [2] of 140 nM.
Taken in the same sequence, the figures for `CCOC(=O)/C=C/[C@H](CCC(N)=O)NC(=O)[C@H](Cc1ccccc1)N(C)C(=O)[C@H](CC(C)C)NC(=O)SC1CCCC1` were 17300 M⁻¹ s⁻¹ and 320 nM.
In turn, `CCOC(=O)/C=C/[C@H](CCC(N)=O)NC(=O)[C@H](Cc1ccccc1)NC(=O)[C@H](CC(C)C)N(C)C(=O)OCc1ccccc1` yielded a k obs / 1 in assay [1] of 100 M⁻¹ s⁻¹.
